Consider 7 compounds from PubChem BioAssay (NCI).

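Growth conditions: 96-well plates. Treatment: test compound, 48 hours, 5 concentrations. Analysis: linear interpolation between bracketing concentrations; unreached endpoints set to highest concentration. The concentration for full growth arrest is given as TGI.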 Bounds are passed on as bounds.

Some test systems named below: K-562 leukemia; SF-295 CNS; ACHN renal; SK-MEL-28 melanoma; NCI-H460 lung; MCF7 breast; SN12C renal; OVCAR-4 ovarian; NCI/ADR-RES ovarian; OVCAR-3 ovarian; HCT-15 colon; U251 CNS; HOP-92 NSCLC; NCI-H522 lung; SNB-19 CNS; TK-10 renal; A549 NSCLC; UO-31 renal; SF-539 CNS.
Common to all, as to experiment: NCI anticancer screen, dose series, 48 h

For the compound `Cc1c(Cl)c(S(N)(=O)=O)cc2c1NC=NS2(=O)=O`, the TGI with K-562 leukemia, in the assay with SF-295 CNS, in the assay on ACHN renal, with SK-MEL-28 melanoma, in the assay on NCI-H460 lung and in the assay on MCF7 breast was above 100 µM throughout. Further, the TGI in the assay with SN12C renal, in the assay on OVCAR-4 ovarian, in the assay on NCI/ADR-RES ovarian, in the assay with OVCAR-3 ovarian, in the assay on HCT-15 colon and with U251 CNS was above 100 µM each time. For the same compound, the TGI in the assay with HOP-92 NSCLC, with NCI-H522 lung, in the assay with SNB-19 CNS, with TK-10 renal, in the assay on A549 NSCLC and in the assay with UO-31 renal was above 100 µM throughout.
For `Cc1ccc(N=Nc2ccc(N)cc2C)c(S(N)(=O)=O)c1`, the TGI with K-562 leukemia, in the assay on SF-539 CNS, with SF-295 CNS, in the assay with ACHN renal, with SK-MEL-28 melanoma and in the assay on NCI-H460 lung was above 100 µM in each case. In addition, the TGI with MCF7 breast, in the assay with SN12C renal, with OVCAR-4 ovarian, with NCI/ADR-RES ovarian, in the assay with OVCAR-3 ovarian and with HCT-15 colon was above 100 µM in each case. Further, the TGI is above 100 µM with U251 CNS; 99.5 µM in the assay with HOP-92 NSCLC; above 100 µM in the assay on NCI-H522 lung; above 100 µM in the assay on SNB-19 CNS; above 100 µM with TK-10 renal; above 100 µM with A549 NSCLC. In the assay on UO-31 renal, this compound showed a TGI above 100 µM.
Consider `Nc1c(C(=O)Nc2ccc(C3=NCCN3)cc2)cccc1C(=O)Nc1ccc(C2=NCCN2)cc1`, for which the TGI in the assay on K-562 leukemia, with SF-539 CNS, in the assay with SF-295 CNS, with SK-MEL-28 melanoma, in the assay with NCI-H460 lung and in the assay on MCF7 breast was above 100 µM throughout. Also, the TGI in the assay on SN12C renal, in the assay with OVCAR-4 ovarian, in the assay on NCI/ADR-RES ovarian, in the assay on OVCAR-3 ovarian, in the assay with HCT-15 colon and in the assay with U251 CNS was above 100 µM in each case. Also, the TGI in the assay with HOP-92 NSCLC, in the assay with NCI-H522 lung, with SNB-19 CNS, with A549 NSCLC and in the assay on UO-31 renal was above 100 µM each time.
In the case of `Cc1cc2sc(C)[n+](CCCOS(=O)(=O)[O-])c2cc1C`, the TGI in the assay with K-562 leukemia, in the assay with SF-539 CNS, with SF-295 CNS, in the assay on ACHN renal, with SK-MEL-28 melanoma and in the assay with NCI-H460 lung was above 100 µM throughout. Further, the TGI in the assay on MCF7 breast, in the assay on SN12C renal, in the assay with OVCAR-4 ovarian, with NCI/ADR-RES ovarian, in the assay with OVCAR-3 ovarian and in the assay on HCT-15 colon was above 100 µM throughout. In addition, the TGI in the assay with U251 CNS, in the assay with HOP-92 NSCLC, in the assay on NCI-H522 lung, in the assay on SNB-19 CNS, in the assay on TK-10 renal and in the assay on A549 NSCLC was above 100 µM throughout. For the same compound, in the assay on UO-31 renal, the TGI is above 100 µM.
As for `C/C(=N\NC(=S)N1CCN(C)CC1)c1nc2ncccc2[nH]1`, the TGI in the assay with K-562 leukemia, with SF-539 CNS, in the assay with SF-295 CNS, in the assay with ACHN renal, in the assay on SK-MEL-28 melanoma and in the assay with NCI-H460 lung was above 100 µM each time. Also, the TGI with MCF7 breast was 80.5 µM; in the assay with SN12C renal it was above 100 µM; in the assay with OVCAR-4 ovarian, above 100 µM; in the assay on NCI/ADR-RES ovarian it was above 100 µM; in the assay with OVCAR-3 ovarian, above 100 µM; in the assay on HCT-15 colon it was above 100 µM. Also, the TGI in the assay with U251 CNS, with HOP-92 NSCLC, with NCI-H522 lung, in the assay with SNB-19 CNS, with TK-10 renal and in the assay on A549 NSCLC was above 100 µM throughout. This compound displayed a TGI with UO-31 renal above 100 µM.
`C/C=C(\C)C(=O)OC1C(C)=C2C(C1OC(=O)CCCC)C(C)(OC(C)=O)CC(OC(=O)CCCC)C1(O)C2OC(=O)C1(C)O` (stereo not drawn): the TGI in the assay with K-562 leukemia, in the assay with SF-539 CNS, in the assay with SF-295 CNS, in the assay on ACHN renal, in the assay with SK-MEL-28 melanoma and in the assay with NCI-H460 lung was above 100 µM throughout. For the same compound, the TGI with MCF7 breast is above 100 µM; in the assay with SN12C renal, above 100 µM; with OVCAR-4 ovarian, above 100 µM; with NCI/ADR-RES ovarian, above 100 µM; with OVCAR-3 ovarian, 2.62 µM; in the assay on HCT-15 colon it was above 100 µM. In addition, the TGI in the assay on U251 CNS is above 100 µM; with HOP-92 NSCLC it was above 100 µM; in the assay with NCI-H522 lung, 7.02 µM; in the assay with SNB-19 CNS, above 100 µM; in the assay on TK-10 renal, above 100 µM; in the assay with A549 NSCLC it was above 100 µM. For the same compound, the TGI in the assay on UO-31 renal was 71.2 µM.
Consider `COC(=O)c1cc2cc3c(c(O)c2c(=O)o1)O[C@@]1(Oc2c(O)c4c(c(O)c2[C@H]1OC1CC(OC)C(O)C(C)O1)C(=O)C=C(OC)C4=O)[C@H](O)C3` (stereo partly drawn), for which the TGI was 8.82 µM with K-562 leukemia; 1.97 µM in the assay with SF-539 CNS; above 29.6 µM with SF-295 CNS; 9.19 µM with ACHN renal; 1.91 µM in the assay on SK-MEL-28 melanoma; above 21.6 µM with NCI-H460 lung. For the same compound, the TGI is 10.1 µM in the assay with MCF7 breast; 12.1 µM in the assay on SN12C renal; 2.89 µM in the assay with OVCAR-4 ovarian; above 100 µM in the assay with NCI/ADR-RES ovarian; above 23.4 µM with OVCAR-3 ovarian; above 19.7 µM in the assay with HCT-15 colon. Moreover, the TGI in the assay on HOP-92 NSCLC was above 23.6 µM; with NCI-H522 lung, 5.19 µM; in the assay on SNB-19 CNS, 12.6 µM; with TK-10 renal, 17.5 µM; in the assay with UO-31 renal, above 30.4 µM.
